Results published in publication PMC4457528, “Identification of Novel Small Molecule Inhibitors of Oncogenic RET Kinase” (PLoS ONE, 2015).
Like-named read-outs stand apart in the source and are kept apart here.

Key:
Assay in all cases: KinomeScan kinase panel, single concentration 10 µM
Assay type in all cases: binding
[1] = biological target: T1, KinomeScan kinase panel (Homo sapiens, UniProt P49841); details: GSK3B, 10 µM; read-out: score (%)
T1 construct: purchased DiscoveRx (KinomeScan)

[2] = biological target: T2, KinomeScan kinase panel (Homo sapiens, UniProt O00329); details: PIK3CD, 10 µM; read-out: score (%)
T2 construct: purchased DiscoveRx (KinomeScan)
T2 sequence (O00329 1-1044): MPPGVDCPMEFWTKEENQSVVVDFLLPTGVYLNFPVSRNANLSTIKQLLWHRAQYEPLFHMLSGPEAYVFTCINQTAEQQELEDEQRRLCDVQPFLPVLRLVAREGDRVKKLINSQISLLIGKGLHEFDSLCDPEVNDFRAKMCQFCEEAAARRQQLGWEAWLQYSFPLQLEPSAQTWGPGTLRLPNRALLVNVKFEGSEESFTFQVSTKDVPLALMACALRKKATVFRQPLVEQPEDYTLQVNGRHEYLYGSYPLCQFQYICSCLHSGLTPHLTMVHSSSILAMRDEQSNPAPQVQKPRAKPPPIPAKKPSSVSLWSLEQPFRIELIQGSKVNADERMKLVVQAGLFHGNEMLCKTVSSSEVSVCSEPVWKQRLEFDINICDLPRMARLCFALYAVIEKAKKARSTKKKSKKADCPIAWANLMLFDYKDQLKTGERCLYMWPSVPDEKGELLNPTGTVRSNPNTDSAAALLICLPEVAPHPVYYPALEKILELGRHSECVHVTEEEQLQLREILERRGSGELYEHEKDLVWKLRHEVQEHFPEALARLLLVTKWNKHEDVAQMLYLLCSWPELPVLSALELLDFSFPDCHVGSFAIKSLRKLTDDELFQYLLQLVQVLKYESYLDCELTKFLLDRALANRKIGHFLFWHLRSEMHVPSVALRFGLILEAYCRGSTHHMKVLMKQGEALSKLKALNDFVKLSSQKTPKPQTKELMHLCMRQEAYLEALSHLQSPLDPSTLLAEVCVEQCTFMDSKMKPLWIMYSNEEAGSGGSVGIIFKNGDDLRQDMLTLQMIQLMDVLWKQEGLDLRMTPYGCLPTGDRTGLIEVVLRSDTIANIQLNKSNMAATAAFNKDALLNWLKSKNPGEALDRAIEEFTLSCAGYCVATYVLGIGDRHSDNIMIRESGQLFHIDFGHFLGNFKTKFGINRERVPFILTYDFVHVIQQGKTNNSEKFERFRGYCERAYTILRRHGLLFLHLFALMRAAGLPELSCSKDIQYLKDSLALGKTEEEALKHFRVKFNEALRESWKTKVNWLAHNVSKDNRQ

[3] = biological target: T3, KinomeScan kinase panel (Homo sapiens, UniProt O14965); details: AURKA, 10 µM; read-out: score (%)
T3 construct: purchased DiscoveRx (KinomeScan)
T3 sequence (O14965 1-403): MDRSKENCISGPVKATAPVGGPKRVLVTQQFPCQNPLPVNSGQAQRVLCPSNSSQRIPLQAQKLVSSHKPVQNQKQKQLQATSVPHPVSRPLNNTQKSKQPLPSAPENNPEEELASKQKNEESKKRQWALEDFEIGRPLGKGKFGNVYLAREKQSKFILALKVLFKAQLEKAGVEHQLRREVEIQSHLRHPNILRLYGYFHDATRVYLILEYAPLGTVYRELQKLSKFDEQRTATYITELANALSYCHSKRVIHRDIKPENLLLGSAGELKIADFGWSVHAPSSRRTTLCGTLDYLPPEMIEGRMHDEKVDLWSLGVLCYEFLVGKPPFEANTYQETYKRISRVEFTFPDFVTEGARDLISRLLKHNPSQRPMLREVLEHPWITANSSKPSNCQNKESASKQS

[4] = biological target: T4, KinomeScan kinase panel (Homo sapiens, UniProt P00519); details: read-out: score (%)
T4 construct: purchased DiscoveRx (KinomeScan)
T4 sequence (P00519 whole entry): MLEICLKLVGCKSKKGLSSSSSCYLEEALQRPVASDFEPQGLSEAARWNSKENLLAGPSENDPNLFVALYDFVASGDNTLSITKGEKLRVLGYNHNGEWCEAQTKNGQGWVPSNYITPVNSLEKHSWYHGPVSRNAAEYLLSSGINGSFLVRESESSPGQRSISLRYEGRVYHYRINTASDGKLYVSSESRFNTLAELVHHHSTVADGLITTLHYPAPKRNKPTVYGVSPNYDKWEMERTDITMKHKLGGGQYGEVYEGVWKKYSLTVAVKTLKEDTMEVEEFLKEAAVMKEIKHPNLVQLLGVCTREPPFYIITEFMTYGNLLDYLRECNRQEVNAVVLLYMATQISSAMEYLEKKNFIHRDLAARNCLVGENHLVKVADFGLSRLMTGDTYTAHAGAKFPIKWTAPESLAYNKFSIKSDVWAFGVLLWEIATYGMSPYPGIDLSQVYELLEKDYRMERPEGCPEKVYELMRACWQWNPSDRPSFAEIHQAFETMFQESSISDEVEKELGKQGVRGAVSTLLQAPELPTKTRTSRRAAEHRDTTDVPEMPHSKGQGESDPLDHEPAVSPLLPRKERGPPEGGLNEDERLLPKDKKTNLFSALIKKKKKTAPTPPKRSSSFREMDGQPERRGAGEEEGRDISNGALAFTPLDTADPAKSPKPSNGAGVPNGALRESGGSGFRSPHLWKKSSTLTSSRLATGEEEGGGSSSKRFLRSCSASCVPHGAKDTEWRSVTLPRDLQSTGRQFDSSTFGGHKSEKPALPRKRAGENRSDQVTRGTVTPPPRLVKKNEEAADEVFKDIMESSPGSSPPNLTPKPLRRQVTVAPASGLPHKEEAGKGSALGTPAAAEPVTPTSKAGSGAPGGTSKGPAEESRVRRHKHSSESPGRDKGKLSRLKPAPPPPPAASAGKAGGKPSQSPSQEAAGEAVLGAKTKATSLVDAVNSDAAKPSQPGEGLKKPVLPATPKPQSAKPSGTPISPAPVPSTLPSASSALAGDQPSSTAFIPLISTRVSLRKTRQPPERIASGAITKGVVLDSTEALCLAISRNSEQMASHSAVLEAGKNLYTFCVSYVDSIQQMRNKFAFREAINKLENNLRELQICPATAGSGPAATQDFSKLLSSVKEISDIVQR

[5] = biological target: T5, KinomeScan kinase panel (Homo sapiens, UniProt Q8N4C8); details: MINK, 10 µM; read-out: score (%)
T5 construct: purchased DiscoveRx (KinomeScan)
T5 sequence (Q8N4C8 whole entry): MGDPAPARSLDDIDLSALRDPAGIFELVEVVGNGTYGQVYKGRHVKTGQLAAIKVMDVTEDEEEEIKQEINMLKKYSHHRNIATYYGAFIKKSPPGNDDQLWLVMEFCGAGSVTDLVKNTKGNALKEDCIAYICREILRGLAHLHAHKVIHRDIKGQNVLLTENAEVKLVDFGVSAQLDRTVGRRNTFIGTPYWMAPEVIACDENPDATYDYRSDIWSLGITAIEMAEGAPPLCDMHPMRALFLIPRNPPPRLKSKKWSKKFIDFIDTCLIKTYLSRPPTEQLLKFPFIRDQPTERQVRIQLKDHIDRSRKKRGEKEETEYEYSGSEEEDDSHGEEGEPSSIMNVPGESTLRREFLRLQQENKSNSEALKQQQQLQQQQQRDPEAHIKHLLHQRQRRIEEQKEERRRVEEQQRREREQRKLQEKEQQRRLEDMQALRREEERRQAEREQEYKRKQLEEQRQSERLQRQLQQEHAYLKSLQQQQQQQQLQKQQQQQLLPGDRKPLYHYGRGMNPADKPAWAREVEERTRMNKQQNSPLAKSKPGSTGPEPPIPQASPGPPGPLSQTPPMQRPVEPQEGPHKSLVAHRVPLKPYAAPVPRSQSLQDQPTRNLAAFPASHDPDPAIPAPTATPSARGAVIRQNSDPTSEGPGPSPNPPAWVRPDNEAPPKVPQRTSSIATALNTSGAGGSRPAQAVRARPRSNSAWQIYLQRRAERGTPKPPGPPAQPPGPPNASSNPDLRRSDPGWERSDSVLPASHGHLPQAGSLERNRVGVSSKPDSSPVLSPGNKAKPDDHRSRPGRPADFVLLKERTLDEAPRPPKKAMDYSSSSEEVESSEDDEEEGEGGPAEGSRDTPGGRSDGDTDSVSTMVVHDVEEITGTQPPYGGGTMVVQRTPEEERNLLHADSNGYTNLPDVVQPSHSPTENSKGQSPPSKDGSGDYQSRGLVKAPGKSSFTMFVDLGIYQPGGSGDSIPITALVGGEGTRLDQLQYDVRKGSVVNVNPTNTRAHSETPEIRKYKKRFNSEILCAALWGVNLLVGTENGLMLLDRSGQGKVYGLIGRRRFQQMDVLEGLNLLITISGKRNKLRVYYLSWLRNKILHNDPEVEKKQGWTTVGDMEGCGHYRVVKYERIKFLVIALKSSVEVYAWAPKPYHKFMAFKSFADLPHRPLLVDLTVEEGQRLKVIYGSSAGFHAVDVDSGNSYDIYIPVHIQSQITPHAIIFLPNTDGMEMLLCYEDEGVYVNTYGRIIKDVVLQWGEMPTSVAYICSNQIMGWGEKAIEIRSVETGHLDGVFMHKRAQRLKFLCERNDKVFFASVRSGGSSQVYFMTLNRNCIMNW

[6] = biological target: T6, KinomeScan kinase panel (Homo sapiens, UniProt Q15569); details: read-out: score (%)
T6 construct: purchased DiscoveRx (KinomeScan)
T6 sequence (Q15569 whole entry): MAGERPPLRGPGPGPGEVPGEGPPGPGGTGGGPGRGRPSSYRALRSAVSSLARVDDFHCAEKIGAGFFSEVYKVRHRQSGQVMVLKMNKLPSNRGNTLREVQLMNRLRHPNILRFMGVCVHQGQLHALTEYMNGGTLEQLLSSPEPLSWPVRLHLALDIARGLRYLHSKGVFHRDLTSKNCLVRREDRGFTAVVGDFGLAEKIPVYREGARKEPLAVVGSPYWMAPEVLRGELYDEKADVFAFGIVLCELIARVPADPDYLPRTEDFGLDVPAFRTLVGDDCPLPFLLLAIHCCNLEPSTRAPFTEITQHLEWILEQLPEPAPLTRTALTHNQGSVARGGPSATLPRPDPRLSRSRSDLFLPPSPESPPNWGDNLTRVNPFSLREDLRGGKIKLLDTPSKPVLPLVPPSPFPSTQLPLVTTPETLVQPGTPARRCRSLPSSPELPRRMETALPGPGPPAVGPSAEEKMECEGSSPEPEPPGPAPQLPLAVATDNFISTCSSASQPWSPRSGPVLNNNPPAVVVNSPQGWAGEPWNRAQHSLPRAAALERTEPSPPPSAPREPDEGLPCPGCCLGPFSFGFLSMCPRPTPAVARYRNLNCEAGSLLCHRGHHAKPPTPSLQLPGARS

[7] = biological target: T7, KinomeScan kinase panel (Homo sapiens, UniProt Q16539); details: p38-alpha, 10 µM
T7 construct: purchased DiscoveRx (KinomeScan)
T7 sequence (Q16539 whole entry): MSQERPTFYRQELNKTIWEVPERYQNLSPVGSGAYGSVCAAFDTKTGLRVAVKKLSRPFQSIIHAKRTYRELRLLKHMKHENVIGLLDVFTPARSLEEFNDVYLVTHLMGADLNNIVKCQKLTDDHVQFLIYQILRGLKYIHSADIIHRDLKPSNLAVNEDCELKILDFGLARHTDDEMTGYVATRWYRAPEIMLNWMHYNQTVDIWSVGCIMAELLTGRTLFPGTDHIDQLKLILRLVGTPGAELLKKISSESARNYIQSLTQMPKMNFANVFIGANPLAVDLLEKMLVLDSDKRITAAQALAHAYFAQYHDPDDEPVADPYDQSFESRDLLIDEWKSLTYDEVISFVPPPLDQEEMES

[8] = biological target: T8, KinomeScan kinase panel (Homo sapiens, UniProt P49674); details: CSNK1E, 10 µM; read-out: score (%)
T8 construct: purchased DiscoveRx (KinomeScan)

[9] = biological target: T9, KinomeScan kinase panel (Homo sapiens, UniProt Q15759); details: p38-beta, 10 µM; read-out: score (%)
T9 construct: purchased DiscoveRx (KinomeScan)
T9 sequence (Q15759 whole entry): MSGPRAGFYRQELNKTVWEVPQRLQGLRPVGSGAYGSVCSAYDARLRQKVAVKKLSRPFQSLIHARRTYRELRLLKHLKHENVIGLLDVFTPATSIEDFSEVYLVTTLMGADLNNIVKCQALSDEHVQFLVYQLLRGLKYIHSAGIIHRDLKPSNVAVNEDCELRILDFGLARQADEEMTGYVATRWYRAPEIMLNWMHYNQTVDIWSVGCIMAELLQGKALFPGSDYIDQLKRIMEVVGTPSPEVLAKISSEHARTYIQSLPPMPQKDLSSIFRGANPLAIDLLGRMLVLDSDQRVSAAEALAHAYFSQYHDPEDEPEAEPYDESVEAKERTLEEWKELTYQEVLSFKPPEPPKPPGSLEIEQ

[10] = biological target: T10, KinomeScan kinase panel (Homo sapiens, UniProt Q00536); details: PCTK1, 10 µM; read-out: score (%)
T10 construct: purchased DiscoveRx (KinomeScan)

[11] = biological target: T11, KinomeScan kinase panel (Homo sapiens, UniProt P36896); details: ACVR1B, 10 µM; read-out: score (%)
T11 construct: purchased DiscoveRx (KinomeScan)
T11 sequence (P36896 24-505): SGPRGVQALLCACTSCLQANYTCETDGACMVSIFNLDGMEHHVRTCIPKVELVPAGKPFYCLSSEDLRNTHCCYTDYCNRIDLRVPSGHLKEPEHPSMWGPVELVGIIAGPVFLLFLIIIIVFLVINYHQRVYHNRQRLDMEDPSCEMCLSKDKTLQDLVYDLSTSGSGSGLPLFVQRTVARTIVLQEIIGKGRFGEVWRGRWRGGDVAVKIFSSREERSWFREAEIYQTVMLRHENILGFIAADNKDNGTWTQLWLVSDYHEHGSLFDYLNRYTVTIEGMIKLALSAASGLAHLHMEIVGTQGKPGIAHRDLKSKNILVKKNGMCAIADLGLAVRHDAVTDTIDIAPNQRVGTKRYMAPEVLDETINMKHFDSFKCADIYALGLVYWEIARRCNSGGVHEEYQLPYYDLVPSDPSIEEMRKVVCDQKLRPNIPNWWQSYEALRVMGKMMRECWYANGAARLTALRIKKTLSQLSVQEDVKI

[12] = biological target: T12, KinomeScan kinase panel (Homo sapiens, UniProt P49760); details: CLK2, 10 µM; read-out: score (%)
T12 construct: purchased DiscoveRx (KinomeScan)
T12 sequence (P49760 whole entry): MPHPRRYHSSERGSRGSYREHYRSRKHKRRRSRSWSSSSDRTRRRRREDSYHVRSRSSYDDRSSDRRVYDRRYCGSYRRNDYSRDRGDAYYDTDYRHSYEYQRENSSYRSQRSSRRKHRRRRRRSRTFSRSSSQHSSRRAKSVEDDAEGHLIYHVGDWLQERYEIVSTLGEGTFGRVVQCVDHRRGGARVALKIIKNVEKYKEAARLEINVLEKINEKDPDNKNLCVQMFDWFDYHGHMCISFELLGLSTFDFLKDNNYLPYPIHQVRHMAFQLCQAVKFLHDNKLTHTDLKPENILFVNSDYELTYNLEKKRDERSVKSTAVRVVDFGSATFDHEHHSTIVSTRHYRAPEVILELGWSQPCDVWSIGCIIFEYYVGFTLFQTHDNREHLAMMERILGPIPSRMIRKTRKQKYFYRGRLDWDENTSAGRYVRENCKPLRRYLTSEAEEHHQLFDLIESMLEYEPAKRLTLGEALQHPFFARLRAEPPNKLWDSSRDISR

T1 sequence (P49841 whole entry): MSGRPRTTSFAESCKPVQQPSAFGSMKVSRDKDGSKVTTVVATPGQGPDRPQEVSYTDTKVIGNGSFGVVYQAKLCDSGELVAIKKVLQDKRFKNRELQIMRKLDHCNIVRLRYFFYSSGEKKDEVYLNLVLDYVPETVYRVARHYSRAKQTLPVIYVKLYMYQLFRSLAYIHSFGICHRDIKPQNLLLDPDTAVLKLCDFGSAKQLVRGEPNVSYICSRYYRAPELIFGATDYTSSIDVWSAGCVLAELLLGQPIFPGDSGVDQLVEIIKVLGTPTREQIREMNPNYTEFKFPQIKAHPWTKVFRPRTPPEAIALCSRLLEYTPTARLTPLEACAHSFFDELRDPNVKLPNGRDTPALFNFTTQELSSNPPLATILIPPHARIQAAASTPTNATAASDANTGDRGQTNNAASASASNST

## CCN1CCN(Cc2ccc(NC(=O)c3ccc(C)c(NC(=O)c4cncc(-c5cccs5)c4)c3)cc2C(F)(F)F)CC1 [ALW-II-41-27]
[1]
  remaining binding at 10 µM: > 30%
[2]
  remaining binding at 10 µM: > 30%
[3]
  remaining binding at 10 µM: > 30%
[4]; ABL1, 10 µM
  remaining binding at 10 µM: 0.05%
[5]
  remaining binding at 10 µM: 0.65%
[6]; kinase TESK1, 10 µM
  remaining binding at 10 µM: > 30%
[7]
  score (%): 0%
[8]
  remaining binding at 10 µM: 0.8%
[9]
  remaining binding at 10 µM: 0%
[10]
  remaining binding at 10 µM: > 30%
[11]
  remaining binding at 10 µM: > 30%
[12]
  remaining binding at 10 µM: 2.4%

## CCN1CCN(Cc2ccc(NC(=O)c3ccc(C)c(/C=C/c4cnc5[nH]ccc5c4Cl)c3)cc2C(F)(F)F)CC1 [HG-6-63-01, (E)-3-(2-(4-chloro-1H-pyrrolo[2,3-b]pyridin-5-yl)vinyl)-N-(4-((4-ethylpiperazin-1-yl)methyl)-3-(trifluoromethyl)phenyl)-4-methylbenzamide]
[1]
  remaining binding at 10 µM: > 30%
[2]
  remaining binding at 10 µM: > 30%
[3]
  remaining binding at 10 µM: 24%
[4]; ABL1, 10 µM
  remaining binding at 10 µM: 0.3%
[5]
  remaining binding at 10 µM: 4.2%
[6]; TESK1, 10 µM
  remaining binding at 10 µM: 4.2%
[7]
  score (%): 0.15%
[8]
  remaining binding at 10 µM: 15%
[9]
  remaining binding at 10 µM: 0%
[10]
  remaining binding at 10 µM: > 30%
[11]
  remaining binding at 10 µM: > 30%
[12]
  remaining binding at 10 µM: > 30%

## CCN1CCN(Cc2ccc(NC(=O)c3ccc(C)c(C#Cc4cccnc4)c3)cc2C(F)(F)F)CC1 [XMD15-44]
[1]
  remaining binding at 10 µM: > 30%
[2]
  remaining binding at 10 µM: 76%
[3]
  remaining binding at 10 µM: > 30%
[4]; ABL1-nonphosphorylated, 10 µM
  remaining binding at 10 µM: 0%
[4]; ABL1-phosphorylated, 10 µM
  remaining binding at 10 µM: 0%
[5]
  remaining binding at 10 µM: 2.5%
[6]; kinase TESK1, 10 µM
  remaining binding at 10 µM: 60%
[7]
  score (%): 0%
[8]
  remaining binding at 10 µM: > 30%
[9]
  remaining binding at 10 µM: 0%
[10]
  remaining binding at 10 µM: 8.4%
[11]
  remaining binding at 10 µM: > 30%
[12]
  remaining binding at 10 µM: > 30%
